# In ChEMBL document CHEMBL3885861, “Open TG-GATES”:
# Organism: Rattus norvegicus
# Test: Open TG-GATES - Regimen: Single
# Type: toxicity, organism-based, Sprague-Dawley
# Set-up: regimen Single, gender Male, age 6 weeks
# Details: in vivo, po, 300 mg/kg, route gavage, dose level High; for APTT / Bas / Eos / Fbg / Hb / Ht / Lym / MCH / MCHC / MCV / Mono / Neu / PT / Plat / RBC / Ret / WBC: tissue Blood; for KIDNEY_L / KIDNEY_R / KIDNEY_TOTAL: tissue Kidney; for LIVER: tissue Liver; for A/G / ALP / ALT / AST / BUN / CRE / Ca / Cl / DBIL / GLC / IP / K / LDH / Na / PL / RALB / TBIL / TC / TG / TP / gamma-GTP: tissue Plasma
compound,measurement,setting,value
NC(=O)N/N=C/c1ccc([N+](=O)[O-])o1 [NITROFURAZONE],TERMINAL_BW,3 h,181.2 g
same,APTT,3 h,16.7 s
same,Bas,3 h,0%
same,Eos,3 h,0.6%
same,Fbg,3 h,230.6 mg/dL
same,Hb,3 h,12.3 g/dL
same,Ht,3 h,38.2%
same,Lym,3 h,70.4%
same,MCH,3 h,21.7 pg
same,MCHC,3 h,32.3%
same,MCV,3 h,67 fL
same,Mono,3 h,4.6%
same,Neu,3 h,23.6%
same,PT,3 h,14.9 s
same,Plat,3 h,114.6 x10_4/uL
same,RBC,3 h,569.8 x10_4/ul
same,Ret,3 h,10.8%
same,WBC,3 h,73.1 x10_2/uL
same,KIDNEY_L,3 h,0.8 g
same,KIDNEY_R,3 h,0.8 g
same,KIDNEY_TOTAL,3 h,1.6 g
same,LIVER,3 h,7.5 g
same,A/G,3 h,0.9
same,ALP,3 h,1634 IU/L
same,ALT,3 h,47 IU/L
same,AST,3 h,81.6 IU/L
same,BUN,3 h,11.8 mg/dL
same,CRE,3 h,0.2 mg/dL
same,Ca,3 h,11.1 mg/dL
same,Cl,3 h,105.2 meq/L
same,DBIL,3 h,0.002 mg/dL
same,GLC,3 h,181.6 mg/dL
same,IP,3 h,8.9 mg/dL
same,K,3 h,3.9 meq/L
same,LDH,3 h,47.8 IU/L
same,Na,3 h,142 meq/L
same,PL,3 h,135.8 mg/dL
same,RALB,3 h,2.4 g/dL
same,TBIL,3 h,0.056 mg/dL
same,TC,3 h,78 mg/dL
same,TG,3 h,29.4 mg/dL
same,TP,3 h,5.2 g/dL
same,gamma-GTP,3 h,1.6 IU/L
same,TERMINAL_BW,6 h,181.5 g
same,APTT,6 h,15.7 s
same,Bas,6 h,0%
same,Eos,6 h,1%
same,Fbg,6 h,265 mg/dL
same,Hb,6 h,12.7 g/dL
same,Ht,6 h,39.5%
same,Lym,6 h,71.2%
same,MCH,6 h,21.5 pg
same,MCHC,6 h,32.1%
same,MCV,6 h,67 fL
same,Mono,6 h,4%
same,Neu,6 h,23.4%
same,PT,6 h,14.6 s
same,Plat,6 h,115.7 x10_4/uL
same,RBC,6 h,589.4 x10_4/ul
same,Ret,6 h,10.7%
same,WBC,6 h,70.2 x10_2/uL
same,KIDNEY_L,6 h,0.8 g
same,KIDNEY_R,6 h,0.8 g
same,KIDNEY_TOTAL,6 h,1.6 g
same,LIVER,6 h,7.6 g
same,A/G,6 h,0.9
same,ALP,6 h,1281.4 IU/L
same,ALT,6 h,44 IU/L
same,AST,6 h,77 IU/L
same,BUN,6 h,9.2 mg/dL
same,CRE,6 h,0.2 mg/dL
same,Ca,6 h,11 mg/dL
same,Cl,6 h,105.4 meq/L
same,DBIL,6 h,0.006 mg/dL
same,GLC,6 h,171 mg/dL
same,IP,6 h,9 mg/dL
same,K,6 h,3.7 meq/L
same,LDH,6 h,47.6 IU/L
same,Na,6 h,142.2 meq/L
same,PL,6 h,149 mg/dL
same,RALB,6 h,2.5 g/dL
same,TBIL,6 h,0.066 mg/dL
same,TC,6 h,84.4 mg/dL
same,TG,6 h,24.4 mg/dL
same,TP,6 h,5.4 g/dL
same,gamma-GTP,6 h,1.4 IU/L
same,TERMINAL_BW,9 h,181 g
same,APTT,9 h,15.4 s
same,Bas,9 h,0%
same,Eos,9 h,1%
same,Fbg,9 h,282.4 mg/dL
same,Hb,9 h,12.4 g/dL
same,Ht,9 h,38.2%
same,Lym,9 h,64.4%
same,MCH,9 h,21.8 pg
same,MCHC,9 h,32.3%
same,MCV,9 h,67.4 fL
same,Mono,9 h,3%
same,Neu,9 h,30.4%
same,PT,9 h,14.5 s
same,Plat,9 h,120.7 x10_4/uL
same,RBC,9 h,567.2 x10_4/ul
same,Ret,9 h,10.7%
same,WBC,9 h,63.1 x10_2/uL
same,KIDNEY_L,9 h,0.8 g
same,KIDNEY_R,9 h,0.8 g
same,KIDNEY_TOTAL,9 h,1.7 g
same,LIVER,9 h,7.5 g
same,A/G,9 h,0.9
same,ALP,9 h,1242 IU/L
same,ALT,9 h,39.2 IU/L
same,AST,9 h,79 IU/L
same,BUN,9 h,10.4 mg/dL
same,CRE,9 h,0.1 mg/dL
same,Ca,9 h,10.8 mg/dL
same,Cl,9 h,103.8 meq/L
same,DBIL,9 h,0.006 mg/dL
same,GLC,9 h,196 mg/dL
same,IP,9 h,10.6 mg/dL
same,K,9 h,3.6 meq/L
same,LDH,9 h,69 IU/L
same,Na,9 h,141 meq/L
same,PL,9 h,135.2 mg/dL
same,RALB,9 h,2.4 g/dL
same,TBIL,9 h,0.062 mg/dL
same,TC,9 h,78.8 mg/dL
same,TG,9 h,23.2 mg/dL
same,TP,9 h,5.2 g/dL
same,gamma-GTP,9 h,1.4 IU/L
same,TERMINAL_BW,24 h,167.8 g
same,APTT,24 h,16.1 s
same,Bas,24 h,0%
same,Eos,24 h,0.5%
same,Fbg,24 h,368.8 mg/dL
same,Hb,24 h,14.1 g/dL
same,Ht,24 h,42.9%
same,Lym,24 h,69%
same,MCH,24 h,21.6 pg
same,MCHC,24 h,32.6%
same,MCV,24 h,66 fL
same,Mono,24 h,3.2%
same,Neu,24 h,26.5%
same,PT,24 h,15.8 s
same,Plat,24 h,112.2 x10_4/uL
same,RBC,24 h,651.8 x10_4/ul
same,Ret,24 h,8.6%
same,WBC,24 h,68.9 x10_2/uL
same,KIDNEY_L,24 h,0.8 g
same,KIDNEY_R,24 h,0.8 g
same,KIDNEY_TOTAL,24 h,1.6 g
same,LIVER,24 h,7 g
same,A/G,24 h,0.9
same,ALP,24 h,1162.2 IU/L
same,ALT,24 h,186 IU/L
same,AST,24 h,88 IU/L
same,BUN,24 h,15 mg/dL
same,CRE,24 h,0.2 mg/dL
same,Ca,24 h,10.6 mg/dL
same,Cl,24 h,105.8 meq/L
same,DBIL,24 h,0.0125 mg/dL
same,GLC,24 h,174.8 mg/dL
same,IP,24 h,9.7 mg/dL
same,K,24 h,3.4 meq/L
same,LDH,24 h,78.8 IU/L
same,Na,24 h,142.8 meq/L
same,PL,24 h,131.2 mg/dL
same,RALB,24 h,2.4 g/dL
same,TBIL,24 h,0.0825 mg/dL
same,TC,24 h,83.8 mg/dL
same,TG,24 h,39.8 mg/dL
same,TP,24 h,5.3 g/dL
same,gamma-GTP,24 h,0.8 IU/L
